# Measured values: US8653100B2 (AbbVie Inc., priority 2008, dated 2014)
# Structures can show the parent of a compound that is named as a salt.
# Target: human GlyT1c transporter (Homo sapiens (Human), UniProt P48067)
# Assay: Radioligand binding assay using recombinant CHO cell membranes expressing human GlyT1
# Conditions: examples 88-204, radioligand not specified by footnote, hydrochloride, read-out: radioligand binding Kiapp
# Procedure: 2. Radioligand binding assays using recombinant CHO cell membranes expressing human GlyT1:
# Radioligand binding to human GlyT1c transporter-expressing membranes was carried out as described in Mezler et al., Molecular Pharmacology 74:1705-1715, 2008.
# More specifically, [^3H]-(R)-NPTS radioligand binding to human GlyT1c transporter-expressing membranes was measured in duplicate in a total volume of 200 μl in 96-well plates. To 100 μl of membrane suspension (yielding a final membrane protein concentration of 50 μg/ml) in assay buffer (120 mM NaCl, 2 mM KCl, 10 mM Hepes, 1 mM MgCl2, 1 mM CaCl2, pH 7.5) […] of [^3H]-(R)-NPTS (0.5 nM final) were added in assay buffer. For competition experiments 10 μl of buffer or unlabeled compound solution obtained from dilution series of test compounds in DMSO followed. An intermediate 1:10 dilution in assay buffer yielded a final DMSO concentration of 1%. Non-specific binding was determined in the presence of 10 μM Org24598 (or its racemate Org24461) for [^3H]-(R)-NPTS. After incubation at room temperature for 1 h, the incubation mixture was harvested (Tomtec Mach III U Harvester) through 96-well GF/B filter plates (PerkinElmer), presoaked for 1 h with 40 μl per well of 0.1% polyethylene-imine (PEI). After washing twice with ice-cold 50 mM Tris-HCl pH 7.4 buffer, drying and addition of 35 μl scintillator (BetaplateScint, PerkinElmer) per well followed. The radioactivity was determined by liquid scintillation spectrometry in a MicroBeta (PerkinElmer) plate counter.
# Data analysis: For binding of [^3H]-(R)-NPTS to cell membranes, the calculation of Kd and Bmax values from the saturation binding assays and the IC50 values from the displacement binding was performed by iterative non-linear regression analysis adapted from the ‘Ligand’ program (Munson and Rodbard, 1980). Radioligand displacement curves in absence or in presence of increasing concentrations of tested compounds were fitted using a one-site fit and the apparent Ki values were calculated from the IC50 values using the Cheng-Prusoff equation (Cheng and Prusoff 1973).
# Chain of human GlyT1c transporter (P48067 whole entry): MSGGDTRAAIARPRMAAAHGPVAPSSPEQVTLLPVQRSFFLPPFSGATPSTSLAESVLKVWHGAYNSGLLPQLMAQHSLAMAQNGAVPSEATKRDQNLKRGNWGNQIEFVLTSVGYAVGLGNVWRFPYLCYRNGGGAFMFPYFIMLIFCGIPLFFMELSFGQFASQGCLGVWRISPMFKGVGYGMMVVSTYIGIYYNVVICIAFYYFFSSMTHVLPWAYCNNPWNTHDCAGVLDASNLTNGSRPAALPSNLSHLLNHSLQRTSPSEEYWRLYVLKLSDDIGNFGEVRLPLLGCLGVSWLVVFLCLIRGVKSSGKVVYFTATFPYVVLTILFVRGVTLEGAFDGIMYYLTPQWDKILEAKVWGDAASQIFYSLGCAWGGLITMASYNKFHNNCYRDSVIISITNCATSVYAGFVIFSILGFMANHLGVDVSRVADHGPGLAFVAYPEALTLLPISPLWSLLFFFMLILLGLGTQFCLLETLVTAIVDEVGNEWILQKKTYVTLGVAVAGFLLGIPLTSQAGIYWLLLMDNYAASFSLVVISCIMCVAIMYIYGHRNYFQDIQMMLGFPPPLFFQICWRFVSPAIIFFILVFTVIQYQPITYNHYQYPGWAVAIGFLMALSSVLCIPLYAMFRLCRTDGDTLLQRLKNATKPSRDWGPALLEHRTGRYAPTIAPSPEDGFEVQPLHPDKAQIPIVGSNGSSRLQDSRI
row,Compound,Ki
1,"O=S(=O)(NCCOc1ccc2c(c1)[C@H](C1(c3ccc(Cl)cc3)CCC1)NCC2)c1cccnc1 [Example 141, N-[2-({(1S)-1-[1-(4-Chlorophenyl)cyclobutyl]-1,2,3,4-tetrahydroisoquinolin-7-yl}oxy)ethyl]pyridine-3-sulfonamide hydrochloride]",≤ 0.1 µM

# Same assay, conditions: examples 88-204, radioligand not specified by footnote, read-out: radioligand binding Kiapp
row,Compound,Ki
1,"CC(C)(c1ccc(Cl)cc1)C1NCCc2ccc(C#N)cc21 (stereo not drawn) [Example 107, 1-[2-(4-Chlorophenyl)propan-2-yl]-1,2,3,4-tetrahydroisoquinoline-7-carbonitrile hydrochloride]",≤ 1 µM
2,"O=S(=O)(CCCOc1ccc2c(c1)C(C1(c3ccc(Cl)cc3)CCC1)NCC2)Nc1ccccn1 (stereo not drawn) [Example 109, 3-({1-[1-(4-Chlorophenyl)cyclobutyl]-1,2,3,4-tetrahydroisoquinolin-7-yl}oxy)-N-(pyridin-2-yl)propane-1-sulfonamide dihydrochloride]",≤ 1 µM
3,"O=S(=O)(NCCOc1ccc2c(c1)C(C1(c3ccc(Cl)cc3)CCC1)NCC2)c1ccc(CCF)cc1 (stereo not drawn) [Example 110, N-[2-({1-[1-(4-Chlorophenyl)cyclobutyl]-1,2,3,4-tetrahydroisoquinolin-7-yl}oxy)ethyl]-4-(2-fluoroethyl)benzenesulfonamide hydrochloride]",≤ 1 µM
4,"Cn1cnc(S(=O)(=O)NCC(=O)Nc2ccc3c(c2)C(C2(c4ccc(Cl)cc4)CCC2)NCC3)c1 (stereo not drawn) [Example 111, N-{1-[1-(4-Chlorophenyl)cyclobutyl]-1,2,3,4-tetrahydroisoquinolin-7-yl}-N˜2˜-[(1-methyl-1H-imidazol-4-yl)sulfonyl]glycinamide dihydrochloride]",≤ 1 µM
5,"Cn1cc(S(=O)(=O)NCC(=O)Nc2ccc3c(c2)C(C2(c4ccc(Cl)cc4)CCC2)NCC3)cn1 (stereo not drawn) [Example 113, N-{1-[1-(4-Chlorophenyl)cyclobutyl]-1,2,3,4-tetrahydroisoquinolin-7-yl}-N˜2˜-[(1-methyl-1H-pyrazol-4-yl)sulfonyl]glycinamide hydrochloride]",≤ 1 µM
6,"O=S(=O)(NCCOc1ccc2c(c1)C(C1(c3ccc(Cl)cc3)CCC1)NCC2)c1ccc(CCCF)cc1 (stereo not drawn) [Example 114, N-[2-({1-[1-(4-Chlorophenyl)cyclobutyl]-1,2,3,4-tetrahydroisoquinolin-7-yl}oxy)ethyl]-4-(3-fluoropropyl)benzenesulfonamide hydrochloride]",≤ 1 µM
7,"O=S(=O)(Nc1ccc(Oc2ccc3c(c2)C(C2(c4ccc(Cl)cc4)CCC2)NCC3)cc1)c1cccs1 (stereo not drawn) [Example 115, N-[4-({1-[1-(4-Chlorophenyl)cyclobutyl]-1,2,3,4-tetrahydroisoquinolin-7-yl}oxy)phenyl]thiophene-2-sulfonamide hydrochloride]",≤ 1 µM
8,"CCCS(=O)(=O)Nc1ccc(Oc2ccc3c(c2)C(C2(c4ccc(Cl)cc4)CCC2)NCC3)nc1 (stereo not drawn) [Example 119, N-[6-({1-[1-(4-Chlorophenyl)cyclobutyl]-1,2,3,4-tetrahydroisoquinolin-7-yl}oxy)pyridin-3-yl]propane-1-sulfonamide dihydrochloride]",≤ 10 µM
9,"CCCS(=O)(=O)Oc1ccc2c(c1)C(C1(c3cccc(F)c3)CCC1)NCC2 (stereo not drawn) [Example 120, 1-[1-(3-Fluorophenyl)cyclobutyl]-1,2,3,4-tetrahydroisoquinolin-7-yl propane-1-sulfonate hydrochloride]",≤ 10 µM
10,"O=S(=O)(Nc1ccccc1Oc1ccc2c(c1)C(C1(c3ccc(Cl)cc3)CCC1)NCC2)c1cccnc1 (stereo not drawn) [Example 122, N-[2-({1-[1-(4-Chlorophenyl)cyclobutyl]-1,2,3,4-tetrahydroisoquinolin-7-yl}oxy)phenyl]pyridine-3-sulfonamide dihydrochloride]",≤ 10 µM
11,"O=S(=O)(Nc1ccc(Oc2ccc3c(c2)C(C2(c4ccc(Cl)cc4)CCC2)NCC3)nc1)c1cccs1 (stereo not drawn) [Example 124, N-[6-({1-[1-(4-Chlorophenyl)cyclobutyl]-1,2,3,4-tetrahydroisoquinolin-7-yl}oxy)pyridin-3-yl]thiophene-2-sulfonamide dihydrochloride]",≤ 10 µM
12,"CCCS(=O)(=O)NCc1ccc2c(c1)C(C1(c3ccccn3)CCC1)NCC2 (stereo not drawn) [Example 125, N-({1-[1-(Pyridin-2-yl)cyclobutyl]-1,2,3,4-tetrahydroisoquinolin-7-yl}methyl)propane-1-sulfonamide trifluoroacetate]",≤ 10 µM
13,"O=S(=O)(Nc1cccnc1Oc1ccc2c(c1)C(C1(c3ccc(Cl)cc3)CCC1)NCC2)c1cccs1 (stereo not drawn) [Example 127, N-[2-({1-[1-(4-Chlorophenyl)cyclobutyl]-1,2,3,4-tetrahydroisoquinolin-7-yl}oxy)pyridin-3-yl]thiophene-2-sulfonamide dihydrochloride]",≤ 10 µM
14,"CCCS(=O)(=O)Nc1cccnc1Oc1ccc2c(c1)C(C1(c3ccc(Cl)cc3)CCC1)NCC2 (stereo not drawn) [Example 128, N-[2-({1-[1-(4-Chlorophenyl)cyclobutyl]-1,2,3,4-tetrahydroisoquinolin-7-yl}oxy)pyridin-3-yl]propane-1-sulfonamide dihydrochloride]",≤ 10 µM
15,"N#Cc1ccc2c(c1)C(C1(c3ccccn3)CCC1)NCC2 (stereo not drawn) [Example 129, 1-[1-(Pyridin-2-yl)cyclobutyl]-1,2,3,4-tetrahydroisoquinoline-7-carbonitrile hydrochloride]",≤ 10 µM
16,"O=S(=O)(Nc1ccc(Oc2ccc3c(c2)C(C2(c4ccc(Cl)cc4)CCC2)NCC3)nc1)c1cccnc1 (stereo not drawn) [Example 131, N-[6-({1-[1-(4-Chlorophenyl)cyclobutyl]-1,2,3,4-tetrahydroisoquinolin-7-yl}oxy)pyridin-3-yl]pyridine-3-sulfonamide trihydrochloride]",≤ 10 µM
17,"O=S(=O)(CC1CC1)NCc1ccc2c(c1)C(C1(c3ccccn3)CCC1)NCC2 (stereo not drawn) [Example 134, 1-Cyclopropyl-N-({1-[1-(pyridin-2-yl)cyclobutyl]-1,2,3,4-tetrahydroisoquinolin-7-yl}methyl)methanesulfonamide trifluoroacetate]",≤ 10 µM
18,"O=S(=O)(Nc1cccnc1Oc1ccc2c(c1)C(C1(c3ccc(Cl)cc3)CCC1)NCC2)c1cccnc1 (stereo not drawn) [Example 136, N-[2-({1-[1-(4-Chlorophenyl)cyclobutyl]-1,2,3,4-tetrahydroisoquinolin-7-yl}oxy)pyridin-3-yl]pyridine-3-sulfonamide trihydrochloride]",≤ 10 µM
19,"NCCCNS(=O)(=O)CCCOc1ccc2c(c1)C(C1(c3ccc(Cl)cc3)CCC1)NCC2 (stereo not drawn) [Example 137, N-(3-Aminopropyl)-3-({1-[1-(4-chlorophenyl)cyclobutyl]-1,2,3,4-tetrahydroisoquinolin-7-yl}oxy)propane-1-sulfonamide dihydrochloride]",≤ 10 µM
20,"CCCS(=O)(=O)NCCOc1ccc2c(c1)C(C(C)(C)c1ccc(Cl)cc1)NCC2 (stereo not drawn) [Example 139, N-[2-({1-[2-(4-Chlorophenyl)propan-2-yl]-1,2,3,4-tetrahydroisoquinolin-7-yl}oxy)ethyl]propane-1-sulfonamide]",≤ 0.1 µM
21,"O=S(=O)(CCCF)NCCOc1ccc2c(c1)C(C1(c3ccc(Cl)cc3)CCC1)NCC2 (stereo not drawn) [Example 140, N-[2-({1-[1-(4-Chlorophenyl)cyclobutyl]-1,2,3,4-tetrahydroisoquinolin-7-yl}oxy)ethyl]-3-fluoropropane-1-sulfonamide hydrochloride]",≤ 0.1 µM
22,"CN(C)S(=O)(=O)NCCOc1ccc2c(c1)C(C1(c3ccc(Cl)cc3)CCC1)NCC2 (stereo not drawn) [Example 143, N′-[2-({1-[1-(4-Chlorophenyl)cyclobutyl]-1,2,3,4-tetrahydroisoquinolin-7-yl}oxy)ethyl]-N,N-dimethylsulfuric diamide hydrochloride]",≤ 0.1 µM
23,"O=S(=O)(CCC(F)(F)F)NCCOc1ccc2c(c1)C(C1(c3ccc(Cl)cc3)CCC1)NCC2 (stereo not drawn) [Example 144, N-[2-({1-[1-(4-Chlorophenyl)cyclobutyl]-1,2,3,4-tetrahydroisoquinolin-7-yl}oxy)ethyl]-3,3,3-trifluoropropane-1-sulfonamide hydrochloride]",≤ 0.1 µM
24,"NCCS(=O)(=O)NCCOc1ccc2c(c1)[C@H](C1(c3ccc(Cl)cc3)CCC1)NCC2 [Example 146, 2-Amino-N-[2-({(1S)-1-[1-(4-chlorophenyl)cyclobutyl]-1,2,3,4-tetrahydroisoquinolin-7-yl}oxy)ethyl]ethanesulfonamide dihydrochloride]",≤ 0.1 µM
25,"Nc1ccc(S(=O)(=O)NCCOc2ccc3c(c2)C(C2(c4ccc(Cl)cc4)CCC2)NCC3)cc1 (stereo not drawn) [Example 147, 4-Amino-N-[2-({1-[1-(4-chlorophenyl)cyclobutyl]-1,2,3,4-tetrahydroisoquinolin-7-yl}oxy)ethyl]benzenesulfonamide dihydrochloride]",≤ 0.1 µM
26,"CN(C)CCS(=O)(=O)NCCOc1ccc2c(c1)C(C1(c3ccc(Cl)cc3)CCC1)NCC2 (stereo not drawn) [Example 149, N-[2-({1-[1-(4-Chlorophenyl)cyclobutyl]-1,2,3,4-tetrahydroisoquinolin-7-yl}oxy)ethyl]-2-(dimethylamino)ethanesulfonamide (2E)-but-2-enedioate]",≤ 0.1 µM
